From US11311542B2, “Inhibitors of cyclin dependent kinase 7 (CDK7)” (Syros Pharmaceuticals, Inc., priority 2018, dated 2022)
Where two headings read alike, the source gives them in different places.

How the values were obtained:
[1] = biological target: CDK7/Cyclin H/MAT1 complex (Homo sapiens, UniProt P50613); assay: CDK7 kinase inhibition assay (Caliper/LabChip EZ Reader)
Experimental: (§2) Compounds described herein were assayed for inhibition of CDK7, CDK9, CDK12, and CDK2 activity at Biortus Biosciences (Jiangyin, Jiangsu Province, P.R. of China) using kinase assays for each CDK developed with a Caliper/LabChip EZ Reader (Perkin Elmer, Waltham, Mass.).
(§3) Furthermore, the CDK9 inhibition assay used CDK9/Cyclin T1 complex (8 nM) and “5-FAM-CDK9tide” peptide substrate (2 μM, synthesized fluorophore-labeled peptide with the following sequence: 5-FAM-GSRTPMY-NH2 (SEQ ID NO:2) where 5-FAM is defined above and NH2 signifies a C-terminal amide) with 10 mM MgCl2 in the buffer composition listed above. The CDK12 inhibition assay used CDK12 (aa686-1082)/Cyclin K complex (50 nM) and “5-FAM-CDK9tide” (2 μM) as defined above, with 2 mM MgCl2 in the buffer composition above. Additionally, the CDK2 inhibition assay used CDK2/Cyclin E1 complex (0.5 nM) and “5-FAM-CDK7tide” (2 μM; defined above) with 2 mM MgCl2 in the buffer composition above.
(§4) The incubation period at 27° C. for each CDK inhibition assay was chosen such that the fraction of phosphorylated peptide product produced in each assay, relative to the total peptide concentration, was approximately 20% (±5%) for the uninhibited kinase (35 min. for CDK7, 35 min. for CDK2, 3 hr. for CDK12, 15 min. for CDK9).

[2] = system: HCC70 cells; assay: Inhibition of cell proliferation (CyQUANT Direct), HCC70; type: cell-based, human; conditions: HCC70, 72-hour
Experimental: (§1) HCC70 and MB453 cells are cell lines derived from human triple negative breast cancer COV318 and COV504 cells are cell lines derived from human ovarian cancer. Representative compounds of the invention were tested at different concentrations (from 4 μM to 126.4 pM; 0.5 log serial dilutions) for their ability to inhibit the proliferation of each of these cell lines. Known CDK inhibitors dinaciclib or N-((1S,3R)-3-((5-chloro-4-(1H-indol-3-yl) pyrimidin-2-yl)amino)cyclohexyl)-5-((E)-4-(dimethylamino)but-2-enamido)picolinamide and triptolide were used as positive controls. Cells were seeded at approximately 2,000 cells/well and grown in ATCC-formulated RPMI-1640 Medium (ATCC 30-2001)+10% FBS. The cells were cultured at 37° C. in a humidified chamber in the presence of 5% CO2. Proliferation assays were conducted over a 72-hour time period. CyQUANT® Direct Cell Proliferation Assay (Life Technologies, Chicago, Ill. USA) was used to assess the anti-proliferative effects of the compounds following manufacturer's directions and utilizing the reagents supplied with the CyQUANT® Direct Cell kit.

[3] = biological target: CDK9/Cyclin T1 complex (Homo sapiens, UniProt P50750); assay: CDK9 kinase inhibition assay (Caliper/LabChip EZ Reader)
Chain of CDK9/Cyclin T1 complex (P50750 whole entry): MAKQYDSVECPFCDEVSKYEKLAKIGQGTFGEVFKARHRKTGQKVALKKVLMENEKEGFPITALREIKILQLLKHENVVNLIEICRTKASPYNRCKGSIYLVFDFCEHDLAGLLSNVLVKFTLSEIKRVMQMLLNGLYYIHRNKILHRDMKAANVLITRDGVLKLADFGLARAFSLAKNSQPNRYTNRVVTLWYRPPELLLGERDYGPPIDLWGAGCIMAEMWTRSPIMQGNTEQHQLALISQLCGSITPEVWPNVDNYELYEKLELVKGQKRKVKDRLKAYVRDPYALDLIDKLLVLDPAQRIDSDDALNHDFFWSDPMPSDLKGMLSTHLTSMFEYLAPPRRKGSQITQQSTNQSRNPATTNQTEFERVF
Chain of CDK9/Cyclin T1 complex (O60563 whole entry partner): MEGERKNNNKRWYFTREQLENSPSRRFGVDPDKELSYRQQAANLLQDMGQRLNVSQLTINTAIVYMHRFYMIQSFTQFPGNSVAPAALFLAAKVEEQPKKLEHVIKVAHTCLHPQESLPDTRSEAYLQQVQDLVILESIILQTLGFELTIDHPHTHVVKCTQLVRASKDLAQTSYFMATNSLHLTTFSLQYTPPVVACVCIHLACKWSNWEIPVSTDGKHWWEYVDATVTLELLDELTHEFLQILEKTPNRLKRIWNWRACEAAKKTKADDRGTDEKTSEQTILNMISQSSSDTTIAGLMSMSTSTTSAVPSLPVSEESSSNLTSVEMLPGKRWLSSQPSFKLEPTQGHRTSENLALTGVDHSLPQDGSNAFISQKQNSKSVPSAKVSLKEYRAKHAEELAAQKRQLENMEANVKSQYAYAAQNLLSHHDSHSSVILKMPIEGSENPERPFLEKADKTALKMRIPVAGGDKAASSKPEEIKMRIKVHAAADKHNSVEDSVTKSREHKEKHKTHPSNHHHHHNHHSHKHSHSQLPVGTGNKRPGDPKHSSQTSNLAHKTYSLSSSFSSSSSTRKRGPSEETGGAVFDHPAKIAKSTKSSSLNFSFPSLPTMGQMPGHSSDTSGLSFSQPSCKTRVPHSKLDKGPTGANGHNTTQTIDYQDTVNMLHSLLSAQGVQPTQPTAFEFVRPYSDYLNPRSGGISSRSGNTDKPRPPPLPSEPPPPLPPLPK
Experimental: as §2, §3, §4

[4] = system: COV318 cells; assay: Inhibition of cell proliferation (CyQUANT Direct), COV318; type: cell-based, human; conditions: COV318, 72-hour
Experimental: as §1

[5] = biological target: CDK2/Cyclin E1 complex (Homo sapiens, UniProt P24941); assay: CDK2 kinase inhibition assay (Caliper/LabChip EZ Reader)
Experimental: as §2, §3, §4

[6] = biological target: CDK12 (aa686-1082)/Cyclin K complex (Homo sapiens, UniProt Q9NYV4); assay: CDK12 kinase inhibition assay (Caliper/LabChip EZ Reader)
Chain of CDK12 (aa686-1082)/Cyclin K complex (Q9NYV4 686-1082): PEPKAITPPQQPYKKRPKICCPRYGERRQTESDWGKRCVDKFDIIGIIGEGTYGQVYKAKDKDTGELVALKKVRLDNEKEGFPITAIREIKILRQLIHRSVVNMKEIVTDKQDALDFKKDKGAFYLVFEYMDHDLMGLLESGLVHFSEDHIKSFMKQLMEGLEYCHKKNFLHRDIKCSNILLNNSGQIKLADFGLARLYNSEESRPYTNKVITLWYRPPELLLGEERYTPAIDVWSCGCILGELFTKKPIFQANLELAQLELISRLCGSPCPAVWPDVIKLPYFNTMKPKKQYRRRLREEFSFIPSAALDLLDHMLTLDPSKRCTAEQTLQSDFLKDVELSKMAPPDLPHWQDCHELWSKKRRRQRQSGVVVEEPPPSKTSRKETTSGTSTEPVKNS
Chain of CDK12 (aa686-1082)/Cyclin K complex (O75909 whole entry partner, the tested form may be a part): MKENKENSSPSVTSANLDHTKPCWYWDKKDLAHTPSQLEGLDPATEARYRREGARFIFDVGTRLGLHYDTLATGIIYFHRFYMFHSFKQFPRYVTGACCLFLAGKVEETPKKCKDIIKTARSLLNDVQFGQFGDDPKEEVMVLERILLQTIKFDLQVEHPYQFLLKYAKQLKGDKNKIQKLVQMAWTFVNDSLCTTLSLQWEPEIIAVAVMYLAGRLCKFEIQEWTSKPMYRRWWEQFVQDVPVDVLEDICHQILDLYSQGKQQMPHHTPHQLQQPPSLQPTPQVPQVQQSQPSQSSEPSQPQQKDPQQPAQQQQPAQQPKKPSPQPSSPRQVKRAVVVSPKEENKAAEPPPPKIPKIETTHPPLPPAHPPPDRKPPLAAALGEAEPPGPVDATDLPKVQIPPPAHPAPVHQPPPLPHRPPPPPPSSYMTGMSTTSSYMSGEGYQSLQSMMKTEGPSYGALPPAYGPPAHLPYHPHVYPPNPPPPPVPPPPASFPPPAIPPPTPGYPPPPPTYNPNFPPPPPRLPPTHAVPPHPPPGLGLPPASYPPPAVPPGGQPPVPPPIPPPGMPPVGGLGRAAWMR
Experimental: as §2, §3, §4

[7] = system: COV504 cells; assay: Inhibition of cell proliferation (CyQUANT Direct), COV504; type: cell-based, human; conditions: COV504, 72-hour
Experimental: as §1

[8] = system: MB453 cells; assay: Inhibition of cell proliferation (CyQUANT Direct), MB453; type: cell-based, human; conditions: MB453, 72-hour
Experimental: as §1

[9] = read-out: CDK7 IC50, CDK7/Cyclin H/MAT1 6 nM, ATP 2 mM, 35 min at 27° C.
[10] = read-out: CDK9 IC50, CDK9/Cyclin T1 8 nM, ATP 2 mM, 15 min at 27° C.
[11] = read-out: CDK2 IC50, CDK2/Cyclin E1 0.5 nM, ATP 2 mM, 35 min at 27° C.
[12] = read-out: CDK12 IC50, CDK12 (aa686-1082)/Cyclin K 50 nM, ATP 2 mM, 3 hr at 27° C.

Chain of CDK7/Cyclin H/MAT1 complex (P50613 whole entry): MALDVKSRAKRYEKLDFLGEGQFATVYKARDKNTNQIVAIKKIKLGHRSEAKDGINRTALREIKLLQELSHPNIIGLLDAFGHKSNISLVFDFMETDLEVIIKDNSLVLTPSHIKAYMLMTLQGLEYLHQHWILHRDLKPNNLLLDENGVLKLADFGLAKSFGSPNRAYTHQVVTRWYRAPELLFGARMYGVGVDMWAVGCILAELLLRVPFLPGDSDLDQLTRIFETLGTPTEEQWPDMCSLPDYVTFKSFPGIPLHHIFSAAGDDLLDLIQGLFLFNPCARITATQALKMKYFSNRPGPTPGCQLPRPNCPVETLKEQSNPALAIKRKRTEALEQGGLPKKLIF
Chain of CDK7/Cyclin H/MAT1 complex (P51946 whole entry partner): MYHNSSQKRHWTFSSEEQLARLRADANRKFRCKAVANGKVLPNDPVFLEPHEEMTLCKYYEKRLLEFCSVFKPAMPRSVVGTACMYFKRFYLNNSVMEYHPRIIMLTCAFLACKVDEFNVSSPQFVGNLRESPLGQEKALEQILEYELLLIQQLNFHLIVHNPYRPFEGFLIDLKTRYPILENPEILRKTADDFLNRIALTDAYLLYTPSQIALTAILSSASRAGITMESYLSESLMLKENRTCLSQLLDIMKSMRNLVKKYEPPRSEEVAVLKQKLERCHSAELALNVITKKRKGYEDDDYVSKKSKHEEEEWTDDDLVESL
Chain of CDK7/Cyclin H/MAT1 complex (P51948 whole entry partner): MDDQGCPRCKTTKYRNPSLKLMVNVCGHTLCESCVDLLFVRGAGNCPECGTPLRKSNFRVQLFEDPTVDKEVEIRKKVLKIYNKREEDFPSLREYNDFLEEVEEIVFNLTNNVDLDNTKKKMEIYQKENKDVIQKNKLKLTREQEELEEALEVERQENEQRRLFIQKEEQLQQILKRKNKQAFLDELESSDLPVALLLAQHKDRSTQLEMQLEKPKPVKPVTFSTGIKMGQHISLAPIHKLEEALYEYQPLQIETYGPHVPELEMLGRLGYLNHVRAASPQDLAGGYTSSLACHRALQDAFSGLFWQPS

| Compound | IC50 [1, 9] [nM] | IC50 [2] [nM] | IC50 [3, 10] [nM] | IC50 [4] [nM] | IC50 [5, 11] [nM] | IC50 [6, 12] [nM] | IC50 [7] [nM] | IC50 [8] [nM] | IC50 [1] [nM] | IC50 ([2]; Homo sapiens) [nM] | IC50 [3] [nM] | IC50 ([4]; Homo sapiens) [nM] | IC50 [5] [nM] | IC50 [6] [nM] | IC50 ([7]; Homo sapiens) [nM] | IC50 ([8]; Homo sapiens) [nM] |
| --- | --- | --- | --- | --- | --- | --- | --- | --- | --- | --- | --- | --- | --- | --- | --- | --- |
| 3-methyl-4-(3-(2-(methylthio)-5-(trifluoromethyl)pyrimidin-4-yl)-1-(phenylsulfonyl)-1H-pyrrolo[2,3-b]pyridin-6-yl)isoxazole [Compound 147] | < 30 | < 100 | > 500 | > 1000 | > 500 | > 500 | < 100 | < 100 | – | – | – | – | – | – | – | – |
| CO[C@@H]1CCNC[C@H]1Nc1ncc(C(F)(F)F)c(-c2c[nH]c3nc(-c4c(C)noc4C)ccc23)n1 (single isomer, unassigned) [Compound 117] | – | – | – | – | – | – | – | – | < 30 | 100 to 500 | > 500 | 500 to 1000 | > 500 | > 500 | < 100 | < 100 |
| CO[C@@H]1CCNC[C@H]1Nc1ncc(C(F)(F)F)c(-c2c[nH]c3cc(-c4c(C)noc4C)ccc23)n1 (single isomer, unassigned) [Compound 127] | – | – | – | – | – | – | – | – | < 30 | > 1000 | > 500 | 100 to 500 | > 500 | > 500 | < 100 | < 100 |
| Cc1noc(C)c1-c1ccc2c(-c3nc(N[C@@H]4CN(C(=O)OC(C)(C)C)CC[C@@H]4C)ncc3C(F)(F)F)cn(S(=O)(=O)c3ccccc3)c2n1 (single isomer, unassigned) [Compound 143] | < 30 | – | > 500 | – | > 500 | > 500 | – | – | – | < 100 | – | > 1000 | – | – | < 100 | < 100 |
| Cc1noc(C)c1-c1ccc2c(-c3nc(N[C@H]4CCCNC4)ncc3C(F)(F)F)n[nH]c2c1 [Compound 100, 4-[6-(3,5-dimethylisoxazol-4-yl)-1H-indazol-3-yl]-N-[(3S)-3-piperidyl]-5-(trifluoromethyl)pyrimidin-2-amine] | – | – | – | – | – | – | – | – | < 30 | < 100 | > 500 | 100 to 500 | > 500 | > 500 | < 100 | < 100 |
| Cc1noc(C)c1-c1ccc2c(-c3nc(N[C@H]4CCCNC4)ncc3C(F)(F)F)c[nH]c2n1 [Compound 101, 4-[6-(3,5-dimethylisoxazol-4-yl)-1H-pyrrolo-[2,3-b]-pyridin-3-yl]-N-[(3S)-3-piperidyl]-5-(trifluoromethyl)pyrimidin-2-amine] | – | – | – | – | – | – | – | – | < 30 | < 100 | > 500 | < 100 | > 500 | 100 to 500 | < 100 | < 100 |
| Cc1noc(C)c1-c1ccc2c(-c3nc(N[C@@H]4CNCC(C)(C)C4)ncc3C(F)(F)F)c[nH]c2c1 [Compound 102] | – | – | – | – | – | – | – | – | < 30 | < 100 | > 500 | 100 to 500 | > 500 | > 500 | < 100 | < 100 |
| FC(F)(F)c1cnc(N[C@H]2CCCNC2)nc1-c1n[nH]c2cc(-c3nccs3)ccc12 [Compound 103] | – | – | – | – | – | – | – | – | < 30 | 100 to 500 | > 500 | 100 to 500 | > 500 | 100 to 500 | < 100 | < 100 |
| Cc1noc(C)c1-c1ccc2c(-c3nc(N[C@H]4CCC(C)(C)NC4)ncc3C(F)(F)F)c[nH]c2c1 [Compound 104, (S)-4-(6-(3,5-dimethylisoxazol-4-yl)-1H-indol-3-yl)-N-(6,6-dimethylpiperidin-3-yl)-5-(trifluoromethyl)pyrimidin-2-amine] | – | – | – | – | – | – | – | – | < 30 | < 100 | > 500 | 100 to 500 | > 500 | > 500 | < 100 | < 100 |
| Cc1noc(C)c1-c1ccc2c(-c3nc(N[C@@H]4CNC[C@H](O)C4)ncc3C(F)(F)F)c[nH]c2c1 [Compound 105, (3R,5S)-5-[[4-[6-(3,5-dimethylisoxazol-4-yl)-1H-indol-3-yl]-5-(trifluoromethyl)pyrimidin-2-yl]amino]piperidin-3-ol] | – | – | – | – | – | – | – | – | < 30 | < 100 | > 500 | 500 to 1000 | > 500 | > 500 | 100 to 500 | 100 to 500 |
| CC1(C)CC[C@H](Nc2ncc(C(F)(F)F)c(-c3c[nH]c4cc(-c5nccs5)ccc34)n2)CN1 [Compound 106, (S)—N-(6,6-dimethylpiperidin-3-yl)-4-(6-(thiazol-2-yl)-1H-indol-3-yl)-5-(trifluoromethyl)pyrimidin-2-amine] | – | – | – | – | – | – | – | – | < 30 | < 100 | > 500 | 100 to 500 | > 500 | > 500 | < 100 | < 100 |
| O[C@H]1CNC[C@@H](Nc2ncc(C(F)(F)F)c(-c3c[nH]c4cc(-c5nccs5)ccc34)n2)C1 [Compound 107] | – | – | – | – | – | – | – | – | < 30 | 100 to 500 | > 500 | 100 to 500 | > 500 | > 500 | 100 to 500 | 100 to 500 |
| FC(F)(F)c1cnc(N[C@H]2CCCNC2)nc1-c1c[nH]c2nc(-c3nccs3)ccc12 [Compound 108] | – | – | – | – | – | – | – | – | < 30 | < 100 | > 500 | < 100 | > 500 | > 500 | < 100 | < 100 |
| CC1(C)CNC[C@@H](Nc2ncc(C(F)(F)F)c(-c3c[nH]c4cc(-c5nccs5)ccc34)n2)C1 [Compound 109] | – | – | – | – | – | – | – | – | < 30 | 100 to 500 | > 500 | < 100 | > 500 | > 500 | < 100 | 100 to 500 |
| FC(F)(F)c1cnc(N[C@H]2CCCNC2)nc1-c1c[nH]c2cc(-c3ncco3)ccc12 [Compound 110, (S)-4-(6-(oxazol-2-yl)-1H-indol-3-yl)-N-(piperidin-3-yl)-5-(trifluoromethyl)pyrimidin-2-amine] | – | – | – | – | – | – | – | – | < 30 | < 100 | > 500 | 100 to 500 | > 500 | > 500 | < 100 | < 100 |
| FC(F)(F)c1cnc(N[C@H]2CCCNC2)nc1-c1c[nH]c2cc(-c3cnco3)ccc12 [Compound 111, (S)-4-(6-(oxazol-5-yl)-1H-indol-3-yl)-N-(piperidin-3-yl)-5-(trifluoromethyl)pyrimidin-2-amine] | – | – | – | – | – | – | – | – | < 30 | 100 to 500 | > 500 | 100 to 500 | > 500 | > 500 | < 100 | 100 to 500 |
| Cc1noc(C)c1-c1ccc2c(-c3nc(N[C@@H]4CNC[C@H](C(=O)N(C)C)C4)ncc3C(F)(F)F)c[nH]c2c1 [Compound 112, (3R,5S)-5-[[4-[6-(3,5-dimethylisoxazol-4-yl)-1H-indol-3-yl]-5-(trifluoromethyl)pyrimidin-2-yl]-amino]-N, N-dimethyl-piperidine-3-carboxamide] | – | – | – | – | – | – | – | – | < 30 | 100 to 500 | > 500 | > 1000 | > 500 | > 500 | 100 to 500 | 100 to 500 |
| CNC(=O)[C@H]1CNC[C@@H](Nc2ncc(C(F)(F)F)c(-c3c[nH]c4cc(-c5c(C)noc5C)ccc34)n2)C1 [Compound 113] | – | – | – | – | – | – | – | – | < 30 | 500 to 1000 | > 500 | > 1000 | > 500 | > 500 | 500 to 1000 | 100 to 500 |
| Cc1nocc1-c1ccc2c(-c3nc(N[C@H]4CCCNC4)ncc3C(F)(F)F)c[nH]c2c1 [Compound 114, (S)-4-(6-(3-methylisoxazol-4-yl)-1H-indol-3-yl)-N-(piperidin-3-yl)-5-(trifluoromethyl)pyrimidin-2-amine] | – | – | – | – | – | – | – | – | < 30 | < 100 | > 500 | < 100 | > 500 | > 500 | < 100 | < 100 |
| Cc1noc(C)c1-c1ccc2c(-c3nc(N[C@@H]4CNCC(C)(C)C4)ncc3C(F)(F)F)c[nH]c2n1 [Compound 115] | – | – | – | – | – | – | – | – | < 30 | < 100 | > 500 | < 100 | 100 to 500 | 100 to 500 | < 100 | < 100 |
